Test results published in PMC11087268, “A folate inhibitor exploits metabolic differences in Pseudomonas aeruginosa for narrow-spectrum targeting” (Nature Microbiology, 2024).
≈ marks a conversion by molar mass, not a printed value.

Key:
[1] = test system: Escherichia coli lptD4213; assay: MIC against E. coli lptD4213 in LB broth; assay type: cell-based; conditions: LPTD4213, 16 h
Description: (§1) Overnight cultures were diluted 1:150 in LB broth and added to a 96-well plate. Antibiotics were serially diluted 1:2 and added to columns of the 96-well plate and grown at 37 °C with continuous shaking. Cell growth was measured using optical density at 600 nm (OD600). MIC assays were performed in either BioTek Synergy HT or Tecan InfiniteM200 Pro microplate readers.

[2] = test system: WI-38 (embryonic lung tissue); assay: Mammalian cell cytotoxicity, WI-38; assay type: cell-based, human
[3] = test system: Escherichia coli NCM-3722; assay: MIC against E. coli NCM-3722 in LB broth; assay type: cell-based; conditions: NCM3722, 16 h, 37 °C, OD600
Description: as §1

[4] = test system: S. aureus USA300; assay: Growth with or without TMI supplementation and fluorofolin, S. aureus USA300; assay type: cell-based, Staphylococcus aureus; conditions: fluorofolin 2X MIC
Description: Where listed, growth media were prepared according manufacturer recommendations: LB broth and LB broth supplemented with 0.3 mM thymine (BD Biosciences 244610, Alfa Aesar A15879), 0.3 mM methionine (Sigma-Aldrich M9625), 0.3 mM inosine (EMD Millipore 4060), cation-adjusted Mueller–Hinton II broth (CAMHB) (BD 212322) or 0.3 mM thymidine (Sigma-Aldrich T1895), Gutnick minimal media (1.0 g l^−1 K2SO4, 13.5 g l^−1 K2HPO4, 4.7 g l^−1 KH2PO4, 0.1 g l^−1 MgSO4·7H2O, 10 mM NH4Cl as a nitrogen source and 0.4% w/v glucose as a carbon source)[65].
Extended Data Fig. 3 TMI supplementation can also rescue other species from fluorofolin DHFR inhibition. […] (f) P. aeruginosa PA14 or E. coli lptd4213 treated with fluorofolin 50 μg/mL in the presence or absence of 0.3 mM thymidine. (g) E. coli lptd4213 treated with fluorofolin 50 μg/mL and SMX (78.1 μg/mL) in the presence or absence of 0.3 mM thymidine or 0.3 mM TMI supplementation, Curves represent average optical at 600 nm (OD600) of 2 biological replicates. Means are shown. Source data

[5] = test system: PA14; assay: Checkerboard assay fluorofolin / sulfamethoxazole; assay type: cell-based, Pseudomonas aeruginosa; conditions: for FIC index: PA14, SMX 0.000 ug/mL
Description: Cells were seeded in a similar manner as described above for MIC calculations. […] Fractional inhibitory concentrations (FICs) were calculated as [[…], where [fluorofolin] and [SMX] are the concentrations of compounds in a given well, which were divided by the concentration of drug at the MIC for each compound.

[6] = test system: P. aeruginosa PA14; assay: Growth of P. aeruginosa PA14 in TMI-supplemented media with fluorofolin; assay type: cell-based, Pseudomonas aeruginosa; conditions: Fluorofolin + TMI

For `Nc1nc(N)c2c(ccc3c2ccn3Cc2ccnc(F)c2)n1` [fluorofolin], the MIC [1] was 0.02 µg/mL, the IC50 ([2]; Homo sapiens, WI-38, 72 h, CyQUANT, read-out: IC50 Fluorofolin) was 14.4 µg/mL (≈ 46.8 µM) and the “increase in IC50 compared with IRS-16” value ([2]; WI-38 cells) was 58.5 fold. The MIC [3] was 0.312 µg/mL, the “rescue of growth inhibition by TMI supplementation” value [4] was “could also be rescued from fluorofolin growth inhibition by TMI supplementation” and the FIC index ([5]; Fluorofolin 3.125 ug/mL) was 1. It also gave an FIC index ([5]; Fluorofolin 6.25 ug/mL) of 2, an FIC index ([5]; Fluorofolin 12.5 ug/mL) of 4 and an FIC index ([5]; Fluorofolin 25 ug/mL) of 8. For the same compound, the MIC ([5]; Pseudomonas aeruginosa, PA14, read-out: MIC of fluorofolin in the presence of SMX) was 0.4 µg/mL, the “OD600 of P. Aeruginosa PA14” value ([6]; Time 0 min) was 0.00375 and the “OD600 of P. Aeruginosa PA14” value ([6]; Time 64.0617 min) was 0.00775. The “OD600 of P. Aeruginosa PA14” value ([6]; Time 74.7383 min) was 0.00825, the “OD600 of P. Aeruginosa PA14” value ([6]; Time 85.415 min) was 0.0086 and the “OD600 of P. Aeruginosa PA14” value ([6]; Time 96.0917 min) was 0.0088. The “OD600 of P. Aeruginosa PA14” value ([6]; Time 106.768 min) was 0.00895, the “OD600 of P. Aeruginosa PA14” value ([6]; Time 117.445 min) was 0.00965 and the “OD600 of P. Aeruginosa PA14” value ([6]; Time 128.123 min) was 0.00995. For the same compound, the “OD600 of P. Aeruginosa PA14” value ([6]; Time 138.8 min) was 0.0106, the “OD600 of P. Aeruginosa PA14” value ([6]; Time 149.477 min) was 0.01185 and the “OD600 of P. Aeruginosa PA14” value ([6]; Time 160.153 min) was 0.0109. For the same compound, the “OD600 of P. Aeruginosa PA14” value ([6]; Time 170.83 min) was 0.01125, the “OD600 of P. Aeruginosa PA14” value ([6]; Time 181.507 min) was 0.01245 and the “OD600 of P. Aeruginosa PA14” value ([6]; Time 192.183 min) was 0.01295. The “OD600 of P. Aeruginosa PA14” value ([6]; Time 202.86 min) was 0.0136, the “OD600 of P. Aeruginosa PA14” value ([6]; Time 213.537 min) was 0.01355 and the “OD600 of P. Aeruginosa PA14” value ([6]; Time 224.213 min) was 0.01385. The “OD600 of P. Aeruginosa PA14” value ([6]; Time 234.89 min) was 0.0143, the “OD600 of P. Aeruginosa PA14” value ([6]; Time 245.567 min) was 0.0154 and the “OD600 of P. Aeruginosa PA14” value ([6]; Time 256.243 min) was 0.01575. For the same compound, the “OD600 of P. Aeruginosa PA14” value ([6]; Time 266.922 min) was 0.0155, the “OD600 of P. Aeruginosa PA14” value ([6]; Time 277.598 min) was 0.0159 and the “OD600 of P. Aeruginosa PA14” value ([6]; Time 288.275 min) was 0.01755. For the same compound, the “OD600 of P. Aeruginosa PA14” value ([6]; Time 298.952 min) was 0.01775, the “OD600 of P. Aeruginosa PA14” value ([6]; Time 309.628 min) was 0.01825 and the “OD600 of P. Aeruginosa PA14” value ([6]; Time 320.305 min) was 0.0182. For the same compound, the “OD600 of P. Aeruginosa PA14” value ([6]; Time 330.982 min) was 0.0183, the “OD600 of P. Aeruginosa PA14” value ([6]; Time 341.658 min) was 0.0174 and the “OD600 of P. Aeruginosa PA14” value ([6]; Time 352.335 min) was 0.01685. The “OD600 of P. Aeruginosa PA14” value ([6]; Time 363.012 min) was 0.01765, the “OD600 of P. Aeruginosa PA14” value ([6]; Time 373.688 min) was 0.01775 and the “OD600 of P. Aeruginosa PA14” value ([6]; Time 384.365 min) was 0.01795. For the same compound, the “OD600 of P. Aeruginosa PA14” value ([6]; Time 395.042 min) was 0.01805, the “OD600 of P. Aeruginosa PA14” value ([6]; Time 405.718 min) was 0.01805 and the “OD600 of P. Aeruginosa PA14” value ([6]; Time 416.395 min) was 0.01825. For the same compound, the “OD600 of P. Aeruginosa PA14” value ([6]; Time 427.072 min) was 0.01805, the “OD600 of P. Aeruginosa PA14” value ([6]; Time 437.748 min) was 0.01825 and the “OD600 of P. Aeruginosa PA14” value ([6]; Time 448.425 min) was 0.018. For the same compound, the “OD600 of P. Aeruginosa PA14” value ([6]; Time 459.102 min) was 0.0175, the “OD600 of P. Aeruginosa PA14” value ([6]; Time 469.78 min) was 0.01855 and the “OD600 of P. Aeruginosa PA14” value ([6]; Time 480.457 min) was 0.0181. The “OD600 of P. Aeruginosa PA14” value ([6]; Time 491.133 min) was 0.01785, the “OD600 of P. Aeruginosa PA14” value ([6]; Time 501.81 min) was 0.01825 and the “OD600 of P. Aeruginosa PA14” value ([6]; Time 512.487 min) was 0.0184. For the same compound, the “OD600 of P. Aeruginosa PA14” value ([6]; Time 523.163 min) was 0.01965.
